In ChEMBL document CHEMBL1201862, “PubChem BioAssay data set” (2004) one finds AC50, IC50 and CC50 data, which are given here for 15 compounds.

One assay deals with Cytochrome P450 2C9 (Homo sapiens, UniProt P11712). As to conditions: Potency.
The target in assay [1] is T1, Neuropeptides B/W receptor type 1 (Homo sapiens, UniProt P48145).
T1 sequence (P48145 whole entry): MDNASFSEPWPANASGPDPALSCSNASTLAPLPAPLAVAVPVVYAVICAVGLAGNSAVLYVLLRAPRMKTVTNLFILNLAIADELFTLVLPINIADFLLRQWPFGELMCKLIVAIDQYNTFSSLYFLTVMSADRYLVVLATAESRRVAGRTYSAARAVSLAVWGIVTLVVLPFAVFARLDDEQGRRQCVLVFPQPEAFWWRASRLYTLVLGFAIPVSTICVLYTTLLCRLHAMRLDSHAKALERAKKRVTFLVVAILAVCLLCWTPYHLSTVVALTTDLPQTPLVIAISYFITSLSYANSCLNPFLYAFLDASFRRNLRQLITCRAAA
Description: Fluorescence-based dose response cell-based high throughput screening assay to identify antagonists of the G-protein coupled receptor 7 (GPR7). [Related pubchem assays: 1952 (Screening assay (GPR7 antagonists).), 1880 (Summary AID.)]. Type of assay: functional.

The target of assay [2] is Melanin-concentrating hormone receptor 1 (Homo sapiens, UniProt Q99705). As to the kind of experiment: Fluorescence-based counterscreen for antagonists of the G-protein coupled receptor 7 (GPR7): cell-based high throughput dose response assay to identify antagonists of the melanin-concentrating hormone receptor 1 (MCHR1). The assay is classed as functional. On the technique in general: The purpose of a counterscreen is to sort out artefacts and off-target activity.
Sequence of Melanin-concentrating hormone receptor 1 (Q99705 whole entry): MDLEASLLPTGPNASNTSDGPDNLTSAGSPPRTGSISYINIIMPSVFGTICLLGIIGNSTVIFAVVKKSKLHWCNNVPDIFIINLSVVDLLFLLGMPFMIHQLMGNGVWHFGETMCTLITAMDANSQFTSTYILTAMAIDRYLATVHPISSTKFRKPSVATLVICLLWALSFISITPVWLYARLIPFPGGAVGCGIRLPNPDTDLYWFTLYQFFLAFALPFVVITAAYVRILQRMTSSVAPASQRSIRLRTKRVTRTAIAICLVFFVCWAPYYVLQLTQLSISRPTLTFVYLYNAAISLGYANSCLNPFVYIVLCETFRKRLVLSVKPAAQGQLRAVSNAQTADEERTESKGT

Assay [3] is described as follows: viability of uninfected HEp-2 cells – cell-based, HTS, cytotoxicity control for RSV inhibitor project, dose response (AID 2410). Type of assay: functional. Conditions: human respiratory syncytial virus.
A further assay concerns the target T2, Leucine aminopeptidase (Plasmodium falciparum 3D7, UniProt Q8IL11).
T2 sequence (Q8IL11 whole entry): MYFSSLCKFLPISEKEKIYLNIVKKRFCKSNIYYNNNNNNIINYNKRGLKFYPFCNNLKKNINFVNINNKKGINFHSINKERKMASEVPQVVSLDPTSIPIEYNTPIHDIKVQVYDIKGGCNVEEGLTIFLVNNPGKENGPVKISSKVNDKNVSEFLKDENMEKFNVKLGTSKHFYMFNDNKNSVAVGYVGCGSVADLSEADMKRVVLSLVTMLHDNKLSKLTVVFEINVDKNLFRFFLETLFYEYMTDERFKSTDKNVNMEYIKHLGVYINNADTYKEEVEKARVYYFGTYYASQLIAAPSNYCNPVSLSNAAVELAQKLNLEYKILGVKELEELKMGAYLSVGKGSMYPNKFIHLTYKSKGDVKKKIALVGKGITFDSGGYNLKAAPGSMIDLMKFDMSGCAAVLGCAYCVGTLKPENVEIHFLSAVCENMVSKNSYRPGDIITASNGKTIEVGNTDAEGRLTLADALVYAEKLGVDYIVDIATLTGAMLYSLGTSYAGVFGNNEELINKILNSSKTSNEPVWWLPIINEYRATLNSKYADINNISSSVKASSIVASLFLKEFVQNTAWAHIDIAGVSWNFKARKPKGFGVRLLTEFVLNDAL
As to the kind of experiment: P. falciparum M17LAP inhibitors, primary screen, biochemical, fluorogenic H-Leu-NHMec substrate, 1536-well (AID 1619). The assay is classed as functional.

Assay [4] can be described thus: blockers of HIV-1 envelope-mediated cell-cell fusion – cherry-pick, dose response (AID 652057). The assay is classed as functional, cell-based.
Assay [5] in a line: blockers of HIV-1 ZM109 envelope-driven cell-cell fusion – HeLa effector, CEM target cells, luciferase, cherry-pick, dose response (AID 652058).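 Also: luciferase signal from HIV-1 Env mediated cell-cell fusion of effector and target cells.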 The assay is classed as functional, cell-based.
Assay [6] can be described thus: off-target signal loss in HeLa-CEM21 co-culture – HeLa F-luc CTL cells, cherry-picked, counter-screen for HIV-1 Env fusion inhibitor project, dose response (AID 652040).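 Also: potency for signal decrease marking cytotoxic or nonspecific inhibition.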 Type of assay: functional, cell-based.
Assay [7] in a line: HIV-1 AD8 envelope cell-cell fusion blockers – cherry-pick, dose response (AID 652062).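 Also: luciferase signal from cell-cell fusion driven by HIV-1 clade B AD8 Env; potency is for inhibitors of fusion seen as a drop in luminescence.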 The assay is classed as functional, cell-based.
A further assay addresses T3, Protein Tat (Human immunodeficiency virus type 1 group M subtype B (isolate HXB2)(HIV-1), UniProt P04608).
T3 sequence (P04608 whole entry): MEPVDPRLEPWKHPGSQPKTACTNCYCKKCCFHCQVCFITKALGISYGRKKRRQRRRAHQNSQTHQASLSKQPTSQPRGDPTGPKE
The assay is classed as functional.

Assay [8] in a line: viability loss in THP-1 monocytes – THP-1 cells, cytotoxicity control for Vif-APOBEC3G degradation inhibitor project, dose response (AID 1117359). The assay is classed as functional. Conditions: THP-1.
Assay [9] concerns the target T4, SUMO-activating enzyme (Homo sapiens, UniProt Q9UBT2). As to the kind of experiment: blockers of UBC9-mediated SUMO conjugation – biochemical, AlphaScreen, SUMOylation inhibitor project, confirmation (AID 2018). Type of assay: functional. On the technique in general: Bead proximity is the source of the signal in Alpha formats.
In assay [10] the target is T4, SUMO-activating enzyme. Description: blockers of SAE1/SAE2–UBC9 SUMO transfer – biochemical, HTRF, uHTS, primary screen (AID 2006). The assay is classed as protein-complex assay. On the technique in general: TR-FRET usually uses a lanthanide donor and a delayed reading to cut background.
Another assay relates to Vero. Description: cells. Conditions: Chlorocebus sabaeus. Type of assay: functional.
The nature of assay [11]: Dd2 parasite growth inhibition in erythrocytes – SYBR Green, dry powder samples, set 9, dose response (AID 1159568). The assay is classed as functional, cell-based.

Calls of active or inactive are those of the source.

Sequence of Cytochrome P450 2C9 (P11712 whole entry): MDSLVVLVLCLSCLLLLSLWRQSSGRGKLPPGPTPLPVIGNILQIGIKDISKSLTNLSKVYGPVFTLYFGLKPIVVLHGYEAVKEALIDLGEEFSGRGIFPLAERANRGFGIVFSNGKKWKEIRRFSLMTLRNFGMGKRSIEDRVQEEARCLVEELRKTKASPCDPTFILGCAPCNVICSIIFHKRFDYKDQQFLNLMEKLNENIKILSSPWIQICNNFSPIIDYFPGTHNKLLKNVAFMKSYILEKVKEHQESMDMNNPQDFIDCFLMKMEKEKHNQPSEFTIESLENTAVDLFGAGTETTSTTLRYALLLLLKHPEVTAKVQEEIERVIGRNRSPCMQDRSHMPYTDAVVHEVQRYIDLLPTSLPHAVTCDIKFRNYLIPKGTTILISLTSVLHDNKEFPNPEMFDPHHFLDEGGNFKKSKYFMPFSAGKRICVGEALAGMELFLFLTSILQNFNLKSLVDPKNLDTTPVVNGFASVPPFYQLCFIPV
T4 sequence (Q9UBE0 whole entry): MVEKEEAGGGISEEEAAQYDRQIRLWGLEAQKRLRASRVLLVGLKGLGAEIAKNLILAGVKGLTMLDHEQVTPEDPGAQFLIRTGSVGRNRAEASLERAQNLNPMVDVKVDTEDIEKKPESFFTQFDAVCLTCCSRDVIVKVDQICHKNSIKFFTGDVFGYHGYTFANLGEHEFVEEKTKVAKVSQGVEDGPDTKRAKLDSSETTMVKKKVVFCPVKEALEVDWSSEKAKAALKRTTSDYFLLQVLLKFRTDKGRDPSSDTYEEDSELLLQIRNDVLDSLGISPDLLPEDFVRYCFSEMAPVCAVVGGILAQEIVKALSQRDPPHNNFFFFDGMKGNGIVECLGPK
T4 sequence (Q9UBT2 whole entry): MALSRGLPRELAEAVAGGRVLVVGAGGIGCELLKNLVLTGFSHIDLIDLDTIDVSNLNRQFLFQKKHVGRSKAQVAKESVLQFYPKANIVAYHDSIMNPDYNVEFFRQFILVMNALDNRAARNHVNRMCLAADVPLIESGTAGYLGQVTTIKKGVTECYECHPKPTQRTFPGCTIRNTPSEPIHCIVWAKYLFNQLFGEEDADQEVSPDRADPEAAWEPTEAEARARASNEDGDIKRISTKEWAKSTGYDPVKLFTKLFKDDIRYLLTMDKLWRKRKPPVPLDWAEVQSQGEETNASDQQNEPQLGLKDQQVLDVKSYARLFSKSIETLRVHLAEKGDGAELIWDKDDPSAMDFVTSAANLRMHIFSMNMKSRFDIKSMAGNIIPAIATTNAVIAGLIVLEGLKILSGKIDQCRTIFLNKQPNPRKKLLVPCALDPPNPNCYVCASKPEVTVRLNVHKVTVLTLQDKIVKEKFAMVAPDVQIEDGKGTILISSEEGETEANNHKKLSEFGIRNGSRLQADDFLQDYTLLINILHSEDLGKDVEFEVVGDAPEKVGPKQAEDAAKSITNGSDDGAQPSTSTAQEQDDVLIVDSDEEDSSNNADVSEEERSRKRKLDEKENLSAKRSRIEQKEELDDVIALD

As usually defined, the AC50 is the midpoint of the concentration-response curve, whichever way the signal moves. Take `CCCCC#CC1C=CC(Oc2cc(OC)c(OC)c(OC)c2)C(COC(=O)OCC)O1` (stereo not drawn): at Cytochrome P450 2C9, the AC50 is 6.31 µM (inconclusive).

As usually defined, the IC50 is the concentration that gives 50% inhibition. For the compound `CN(c1ccccc1)S(=O)(=O)c1ccc(C(=O)NCCc2ccccc2)cc1`, the IC50 in assay [1] was > 14.6 µM (not active); in assay [2] it was 16 µM (not active).

For `COc1ccc(NS(=O)(=O)c2cccc(C(=O)NCC(c3ccc(F)cc3)N3CCOCC3)c2)cc1` (stereo not drawn), the IC50 is > 43.8 µM (not active) in assay [1] and 23.6 µM (not active) in assay [2].

The term CC50 denotes the concentration giving 50% cytotoxicity. On to `c1ccc(CCn2c3ccccc3c3nnc(SCc4ccc5nonc5c4)nc32)cc1`, for which the cytotoxic concentration (CC50) in [3] is 22.3 µM (active). The IC50 in the assay “cells” is 28.3 µM (active).

Consider `O=S(=O)(Nc1cccc(-c2ccc(N3CCOCC3)nn2)c1)c1cc(Cl)ccc1Cl`, for which, in [3], the CC50 was 23.5 µM (active). Also, in the assay “cells”, the IC50 is 8.9 µM (active).

For the compound `O=C1CCCN1c1ccc(C(=O)N(Cc2nnc(-c3ccccc3Cl)o2)C2CC2)cc1`, the CC50 in [3] is 48.5 µM (active). Besides, the IC50 in “cells” is 18.8 µM (active).

With `CC(C)C[C@@H](CC(=O)N[C@@H](CCCN)CC(=O)N[C@@H]1CCCC[C@H]1C(=O)N[C@H](CC(=O)N[C@@H](CCC(=O)O)CC(=O)O)Cc1c[nH]c2ccccc12)NC(=O)[C@@H]1CCCC[C@H]1N`, the AC50 on Cytochrome P450 2C9 was 39.8 µM (inconclusive).

For the compound `CSc1ncnc2c1ncn2CC(=O)[C@H]1CC[C@H]2[C@H]3CCC4=CC(=O)CC[C@@]4(C)[C@@H]3CC[C@@]12C`, the AC50 on Cytochrome P450 2C9 is 3.16 µM (inconclusive).

As to `COc1ccc(CNC(=O)Cc2c(C(=O)O)[nH]c3ccccc23)cc1`, at Leucine aminopeptidase, the IC50 was 35.6 µM (active).

Consider `COC(=O)CNC(c1ccccc1)c1cc(C)ccc1NC(=O)CNC(=O)OCc1ccccc1` (stereo not drawn), for which the values for the IC50 in assay [1] and in assay [2] were 35.3 µM (not active) and 20 µM (not active), respectively. For the same compound, the AC50 in assay [4] was 3.28 µM (active); in assay [5], 6.89 µM (active); in assay [6], 6.15 µM (active); in assay [7], 36.1 µM (active).

On to `C[C@@H]1CN([C@@H](C)CO)C(=O)c2cc(NC(=O)Nc3ccccc3)ccc2O[C@@H](C)CCCCO[C@H]1CN(C)C(=O)Nc1ccc(C(F)(F)F)cc1`, for which the IC50 at Protein Tat is > 100 µM (active). In addition, in assay [8], the CC50 is 36.3 µM (active).

As to `Sc1nnc(-c2cccs2)n1/N=C/c1cn(-c2ccccc2)nc1-c1ccc(Cl)cc1`, the figures for the IC50 on SUMO-activating enzyme [9] and at SUMO-activating enzyme [10] were 5.24 µM (active) and 34.5 µM (active), respectively. For the same compound, in the assay with Vero, the CC50 was > 25 µM (active).

For `Cc1cccc(N/N=C(\C#N)S(=O)(=O)C(C)(C)C)c1`, the IC50 on Leucine aminopeptidase is 19 µM (active).

For `C/C=C/c1ccc([C@H]2[C@@H](CO)N(CC3CCCCC3)[C@H]2CNC(C)C)cc1`, the concentration at half-maximal activity (AC50) in [11] is 5.66 µM (active).

As for `COc1ccc(S(=O)(=O)Nc2ccc3c(c2)C(=O)N([C@H](C)CO)C[C@@H](C)[C@@H](CN(C)S(=O)(=O)c2ccc(Cl)cc2)OCCCC[C@@H](C)O3)cc1`, the AC50 in assay [11] was 0.742 µM (active).
